According to US12391919B2, “Culture medium, coating matrix and method for maturing midbrain dopaminergic progenitor cells” (NUWACELL BIOTECHNOLOGIES CO., LTD., priority 2022, dated 2025):
Structures can show the parent of a compound that is named as a salt.

Assays:
Format in all cases: cell-based, human
imDAPs [1] = assay: qRT-PCR analysis of imDAP-specific markers in expanded imDAPs; conditions: Example 3; 3 μM CHIR99021 (vs 0, 1.25 μM) during expansion; 5 days; FIG. 1C
Method: • 1. Individualize and collect cells by either Accutase or TrypLE treatment. • 2. Wash cells with 1 ml PBS and pellet cells at 250×g for 15 sec. • 3. Remove supernatant, add ˜200 μl of 4% PFA, mix and fix for 10 min at RT. • 4. Pellet cells at 350×g for 5 min. • 5. Wash cells by 1 ml of FACS buffer and pellet cells at 350×g for 5 min. • 6. Remove supernatant, add 200 μl/tube of FACS buffer/0.1% TritonX, mix for 10 min at RT. • 7. Wash cells by 1 ml of FACS buffer and pellet cells at 350×g for 5 min. • 8. Remove supernatant, add 200 μl/tube of primary antibody diluted in FACS buffer, mix gently, and incubate for 30 min at RT. • 9. Wash cells by 1 ml of FACS buffer and pellet cells at 350×g for 5 min. • 10. Remove supernatant, and add 200 μl of secondary antibody diluted in FACS buffer, mix gently, and incubate for 30 min at RT. • 11. Wash cells by 1 ml of FACS buffer and pellet cells at 300×g for 5 min. • 12. Remove supernatant, add 200 μl of FACS buffer, and run samples on the flow cytometry. (2) qRT-PCR • 1. For qRT-PCR analysis of mRNA gene expression, RNA should be harvested from at least 2×10^6 cells. • 2. […] Analyze the samples by running a quantitative PCR on the LightCycler 480 instrument using a 40× cycle two-step protocol with a 60° C., 60 sec annealing/elongation step and a 95° C., 30 sec denaturation step. […]

imDAPs [2] = assay: Flow cytometry (FACS) analysis of FOXA2 expression in expanded imDAPs; conditions: Example 6
Method: • 1. Individualize and collect cells by either Accutase or TrypLE treatment. • 2. Wash cells with 1 ml PBS and pellet cells at 250×g for 15 sec. • 3. Remove supernatant, add ˜200 μl of 4% PFA, mix and fix for 10 min at RT. • 4. Pellet cells at 350×g for 5 min. • 5. Wash cells by 1 ml of FACS buffer and pellet cells at 350×g for 5 min. • 6. Remove supernatant, add 200 μl/tube of FACS buffer/0.1% TritonX, mix for 10 min at RT. • 7. Wash cells by 1 ml of FACS buffer and pellet cells at 350×g for 5 min. • 8. Remove supernatant, add 200 μl/tube of primary antibody diluted in FACS buffer, mix gently, and incubate for 30 min at RT. • 9. Wash cells by 1 ml of FACS buffer and pellet cells at 350×g for 5 min. • 10. Remove supernatant, and add 200 μl of secondary antibody diluted in FACS buffer, mix gently, and incubate for 30 min at RT. • 11. Wash cells by 1 ml of FACS buffer and pellet cells at 300×g for 5 min. • 12. Remove supernatant, add 200 μl of FACS buffer, and run samples on the flow cytometry. (2) qRT-PCR • 1. For qRT-PCR analysis of mRNA gene expression, RNA should be harvested from at least 2×10^6 cells. • 2. Harvest cells, add 350 μl of buffer RLT+1% (vol/vol) s-mercaptoethanol to the well, transfer the lysate to a 1.5 ml tube, and put it immediately on ice. • 3. Perform RNA extraction using the Tiangen Kit (DP430), and follow the manufacturer's protocol ‘Purification of total RNA from animal and human cells’. • 4. When the RNA extraction was completed, determine the RNA concentration using a Nanodrop instrument. • 5. Perform the first-strand cDNA synthesis reaction with 1 μg of RNA using the HiScript TM II Q RT SuperMIX for qPCR(+gDNA wiper) Kit (Vazyme, #R223-01) for RT-qPCR. Follow the manufacturer's ‘First-Strand cDNA Synthesis’ protocol. This reaction would yield a 20 μl product. • 6. Dilute the 10 μl cDNA product in 80 μl of nuclease-free water. • 7. Pipette the diluted cDNA product (1 μl), Sybr green master mix (5 μl, Transgen, #AQ131) and 0.95 μM reverse/forward primer mix (4 μl) into a 384-well PCR plate in triplicate, either manually or using an automated pipetting robot. The complete primer panel included the target genes and the housekeeping gene (RPL13A). In the analysis, also included a sample of undifferentiated hPSCs to determine the gene expression levels relative to the expression in hPSCs. • 8. Analyze the samples by running a quantitative PCR on the LightCycler 480 instrument using a 40× cycle two-step protocol with a 60° C., 60 sec annealing/elongation step and a 95° C., 30 sec denaturation step. The average CT values from the three technical replicates were used for calculations of relative gene expression using the ΔΔCT method. For each gene, calculate the FC of the differentiated samples relative to the undifferentiated control sample using the housekeeping gene for normalization. Next, calculate the average of the FC values on the basis of the housekeeping gene. (3) Immunocytochemical Analysis • 1. Cell fixation: Remove the medium from the cells and wash with PBS. Add 4% (wt/vol) PFA (e.g., 200 μl to a well in a 48-well plate) and incubate at room temperature (RT) for 15 min. after incubation, wash the cells three times in PBS. • 2. Blocking: Remove PBS from the wells and add blocking solution to the cells, add enough volume to cover the cells. Leave the cells in blocking solution for 1 h at RT. • 3. Primary antibodies incubation: Remove the blocking solution from the cells and add the primary antibody solutions (˜100 μl/cm^2). […]

imDAPs [3] = assay: imDAP maturation: cell morphology, adhesion and cell yield; conditions: Example 13; maturation media supplemented with 10 μM Y27632; day 7; FIG. 8A
Method: imDAPs were produced according to the method described in CN201910169525.0, and expanded as described in Example 10. […] MM-H used in Example 11 contained the following components: Neurobasal™ medium, 1% (v/v) Glutamax, 0.5 mM Db-cAMP sodium salt, 200 μM ascorbic acid, 20 ng/ml BDNF, 20 ng/ml GDNF, 1 ng/ml TGF-β3, 10 μM DAPT, HhPLT (0.5%, 1%, 2%). MM-B used in Example 11 contained the following components: Neurobasal, 1% (v/v) Glutamax, 0.5 mM Db-cAMP sodium salt, 200 μM ascorbic acid, 20 ng/ml BDNF, 20 ng/ml GDNF, 1 ng/ml TGF-β3, 10 μM DAPT, 2% (v/v) B27 (50×) (as control). The above HhPLT was produced from hPLT as follows. The hPLT was centrifuged at 3000 g for 30 min at 4° C. to obtain the supernatant, which was heated to 56° C. for 30 min. The suspension was finally cooled down to 4° C. at least 5 min, and spun at 3000 g for 30 min at 4° C. to obtain the HhPLT supernatant. Aliquots were prepared and stored at −80° C. until use. The above Medium was changed every 3rd day. On day 7, the imDAPs at early maturation stage were dissociated enzymatically with 1× TrypLE, centrifuged at 250 g for 5 minutes.
imDAPs were produced according to the method described in CN201910169525.0, and expanded as described in Example 10. […] Medium was changed every 3rd day. On day 7, the imDAPs at early maturation stage were dissociated enzymatically with 1× TrypLE, centrifuged at 250 g for 5 minutes. Cells were collected for RT-qPCR analysis of EN1, LMX1A, FOXA2, NURR1, SOX6 and TH gene expression. The maturation medium used in Example 12 contained the following components: Neurobasal™ medium, 1% (v/v) Glutamax, 1% (v/v) HhPLT, 0.5 mM Db-cAMP sodium salt, 200 μM ascorbic acid, 20 ng/mL BDNF, 20 ng/mL GDNF, 1 ng/mL TGF-β3, 10 μM DAPT.
imDAPs were produced according to the method described in CN201910169525.0, and expanded as described in Example 10. […] Cells were collected and counted by Vi-cell cytometer. The cells were analyzed by RT-qPCR for EN1, LMX1A, FOXA2, NURR1, SOX6 and TH gene expression. […]

Row | SMILES | mDAP marker expression (EN1, LMX1A, FOXA2) (imDAPs [1]) | percentage of Foxa2-expressing cells (imDAPs [2]; 10 μM Y27632 vs 5 μM Blebbistatin, VTN-coated, Day 6, FIG. 2) | percentage of Foxa2-expressing cells during passages (imDAPs [2]; medium with Y27632) | cell adhesion and growth (imDAPs [3])
1 | Cc1cnc(-c2cnc(NCCNc3ccc(C#N)cn3)nc2-c2ccc(Cl)cc2Cl)[nH]1 [CHIR99021] | allowed better maintenance of mDAP marker expression |  |  | 
2 | C[C@@H](N)[C@H]1CC[C@H](C(=O)Nc2ccncc2)CC1 [Y27632, (R)-(+)-trans-4-(1-aminoethyl)-N-(4-pyridyl) cyclohexanecarboxamide dihydrochloride] |  | capable of improving the percentage of Foxa2-expressing cells than Blebbistatin | still decreased during passages | could promote cell adhesion at a certain degree
